Reference: patent publication US7569239B2, “Antioxidative compositions” (priority 2002, dated 2009)

Test system: colitis (colon growth caused by inflammation)
Assay: DNBS-induced colitis in rats (animal model for inflammatory bowel disease)
Assay type: in vivo, male Spregue-Dawley rats
Settings: oral once a day for 7 days, rat
Protocol: In one experiment, male Spregue-Dawley rats (150-180 gram; Charles River Lab, Boston, Mass.) were kept in filter-topped cages with free access to food and water, and housed in a positive pressure room with controlled temperature and photoperiod during studies. As an animal model for inflammatory bowel disease (e.g., Crohn's disease), colitis (colon growth caused by inflammation) was induced by intracolonic instillation of 25 mg of a hapten reagent, 2,4-dinitrobenzenesulfonic acid (TCI, Japan), in 0.5 ml of 30% vol/vol ethanol. Each rat was first anaesthetized with […]/ethanol was injected into the colon, 8 cm proximal to the anus, with a PE 50 cannula. 2 ml of air was then gently injected through the cannula to ensure that the solution remained in the colon. The rat was then kept in a vertical position for 30 second and returned to its cage. By using the same procedures, rats in the blank-control group received 0.5 ml of 30% ethanol. See Hogaboam, et al., Eur. J. Pharmacol. (1996) 309:261-269. […] Each daily dose contained 3.125 mg to 25 mg of quercetin aglycon for each kilogram of body weight. The weight of each rat was monitored every 24 hours. […] Before removal of each colon, the presence or absence of adhesions between the colon and other organs were recorded upon opening the abdominal cavity. The colon-to-body weight ratio was then calculated for each animal. […]

O=c1c(O)c(-c2ccc(O)c(O)c2)oc2cc(O)cc(O)c12 [quercetin aglycon]
inhibition of colon growth (colon-to-body weight ratio) (3.125 mg/kg quercetin aglycon): failed to do so
inhibition of colon growth (colon-to-body weight ratio) (25 mg/kg quercetin aglycon): inhibited colon growth
